{"source": "patent EP0120613A1", "about": "“Penem derivatives and precursors” (BEECHAM GROUP PLC, priority 1983, dated 1984)", "key": {"Staphylococci Russell": {"test_system": "Staphylococci Russell", "assay": "Antibacterial activity of alkylidene-penems (MIC)", "assay_type": "cell-based", "settings": "compound alone"}, "Staphylococci Oxford": {"test_system": "Staphylococci Oxford", "assay": "Antibacterial activity of alkylidene-penems (MIC)", "assay_type": "cell-based", "settings": "compound alone"}, "[1]": {"test_system": "range of resistant strains", "assay": "MIC of Example 1b alone, microtitre technique (Table 3)", "assay_type": "cell-based", "settings": "Ex 1b alone; strains of Table 3"}, "S Aureus Russell": {"test_system": "S Aureus Russell", "assay": "Effect of alkylidene-penems on the MIC of amoxycillin", "assay_type": "cell-based", "settings": "Amoxycillin alone"}, "Kleb aerogenes": {"test_system": "Kleb aerogenes", "assay": "Effect of alkylidene-penems on the MIC of amoxycillin", "assay_type": "cell-based, Klebsiella aerogenes", "settings": "Amoxycillin alone"}, "E. coli JT39 (RTEM)": {"test_system": "E. coli JT39 (RTEM)", "assay": "Effect of alkylidene-penems on the MIC of amoxycillin", "assay_type": "cell-based", "settings": "Amoxycillin alone"}, "Ps.aeruginosa Charlier": {"test_system": "Ps.aeruginosa Charlier", "assay": "MIC of broad spectrum cephalosporins with Example 1b, microtitre technique", "assay_type": "cell-based"}, "Ps.aeruginosa Badia IR": {"test_system": "Ps.aeruginosa Badia IR", "assay": "MIC of broad spectrum cephalosporins with Example 1b, microtitre technique", "assay_type": "cell-based"}, "S.marcescens V697": {"test_system": "S.marcescens V697", "assay": "MIC of broad spectrum cephalosporins with Example 1b, microtitre technique", "assay_type": "cell-based"}, "S.marcescens HCN 3956": {"test_system": "S.marcescens HCN 3956", "assay": "MIC of broad spectrum cephalosporins with Example 1b, microtitre technique", "assay_type": "cell-based"}, "C.freundii T1739": {"test_system": "C.freundii T1739", "assay": "MIC of broad spectrum cephalosporins with Example 1b, microtitre technique", "assay_type": "cell-based"}, "C.freundii 423": {"test_system": "C.freundii 423", "assay": "MIC of broad spectrum cephalosporins with Example 1b, microtitre technique", "assay_type": "cell-based"}, "C.freundii T562": {"test_system": "C.freundii T562", "assay": "MIC of broad spectrum cephalosporins with Example 1b, microtitre technique", "assay_type": "cell-based"}, "M.morganii 978": {"test_system": "M.morganii 978", "assay": "MIC of broad spectrum cephalosporins with Example 1b, microtitre technique", "assay_type": "cell-based"}, "E.cloacae 4508": {"test_system": "E.cloacae 4508", "assay": "MIC of broad spectrum cephalosporins with Example 1b, microtitre technique", "assay_type": "cell-based"}, "E.cloacae V692/80": {"test_system": "E.cloacae V692/80", "assay": "MIC of broad spectrum cephalosporins with Example 1b, microtitre technique", "assay_type": "cell-based"}, "E.cloacae P383": {"test_system": "E.cloacae P383", "assay": "MIC of broad spectrum cephalosporins with Example 1b, microtitre technique", "assay_type": "cell-based"}, "E.cloacae 159/167": {"test_system": "E.cloacae 159/167", "assay": "MIC of broad spectrum cephalosporins with Example 1b, microtitre technique", "assay_type": "cell-based"}, "E.cloacae Dokt 5": {"test_system": "E.cloacae Dokt 5", "assay": "MIC of broad spectrum cephalosporins with Example 1b, microtitre technique", "assay_type": "cell-based"}, "E.aerogenes 53": {"test_system": "E.aerogenes 53", "assay": "MIC of broad spectrum cephalosporins with Example 1b, microtitre technique", "assay_type": "cell-based"}, "E.aerogenes 55": {"test_system": "E.aerogenes 55", "assay": "MIC of broad spectrum cephalosporins with Example 1b, microtitre technique", "assay_type": "cell-based"}, "E.aerogenes P99": {"test_system": "E.aerogenes P99", "assay": "MIC of broad spectrum cephalosporins with Example 1b, microtitre technique", "assay_type": "cell-based"}, "E.coli JT410": {"test_system": "E.coli JT410", "assay": "Effect of alkylidene-penems on the MIC of cephaloridine", "assay_type": "cell-based", "settings": "Cephaloridine alone"}}, "data": [{"smiles": "O=C(O)C1=CSC2/C(=C\\c3ccco3)C(=O)N12", "note": "(racemic) [Example 1b, (5 RS) Sodium (Z) -6- Furfurylidenepenem - 3 - carboxylate]", "values": [{"measurement": "MIC", "setting": "Staphylococci Russell", "result": 16.0, "unit": "µg/mL"}, {"measurement": "MIC", "setting": "Staphylococci Oxford", "result": 16.0, "unit": "µg/mL"}, {"measurement": "MIC", "setting": "[1]", "result": "> 80", "unit": "µg/mL"}]}, {"smiles": "CCSC1=C(C(=O)O)N2C(=O)/C(=C/c3ccco3)C2S1", "note": "(racemic) [Example 2b, (5RS) Sodium 2-Eth^ylthio - (Z)-6-furfurylidenepenem-3-carboxylate]", "values": [{"measurement": "MIC", "setting": "Staphylococci Russell", "result": 10.0, "unit": "µg/mL"}, {"measurement": "MIC", "setting": "Staphylococci Oxford", "result": 5.0, "unit": "µg/mL"}]}, {"smiles": "O=C(O)C1=C(SCCO)SC2/C(=C\\c3ccco3)C(=O)N12", "note": "(racemic) [Example 3b, (5RS) Sodium (Z)-6-Furfurylidene-2-(2-hydroxyethylthio) penem-3-carboxylate]", "values": [{"measurement": "MIC", "setting": "Staphylococci Russell", "result": 12.5, "unit": "µg/mL"}, {"measurement": "MIC", "setting": "Staphylococci Oxford", "result": 12.5, "unit": "µg/mL"}]}, {"smiles": "CCSC1=C(C(=O)O)N2C(=O)/C(=C/c3ccc(COC(C)=O)o3)C2S1", "note": "(racemic) [Example 5b, (SRS) Sodium (z)-6-(5-Acetoxymethylfurfurylidene)-2-ethylthiopenem-3-carboxylate]", "values": [{"measurement": "MIC", "setting": "Staphylococci Russell", "result": 12.5, "unit": "µg/mL"}, {"measurement": "MIC", "setting": "Staphylococci Oxford", "result": 3.1, "unit": "µg/mL"}]}, {"smiles": "O=C(O)C1=CSC2/C(=C\\c3cccs3)C(=O)N12", "note": "(racemic) [Example 7b, (5RS) Sodium (Z)-6-(2-thienyl)methylenepenem-3-carboxylate]", "values": [{"measurement": "MIC", "setting": "Staphylococci Russell", "result": 50, "unit": "µg/mL"}, {"measurement": "MIC", "setting": "Staphylococci Oxford", "result": 100, "unit": "µg/mL"}]}, {"smiles": "O=C(O)C1=CSC2/C(=C\\c3ccsc3)C(=O)N12", "note": "(racemic) [Example 8b, (5RS) Sodium (Z)-6-(3-thienyl)methylenepenem-3-carboxylate]", "values": [{"measurement": "MIC", "setting": "Staphylococci Russell", "result": 12.5, "unit": "µg/mL"}, {"measurement": "MIC", "setting": "Staphylococci Oxford", "result": 50, "unit": "µg/mL"}]}, {"smiles": "O=C(O)C1=CSC2/C(=C/c3ccco3)C(=O)N12", "note": "(racemic) [Example 9b, (5RS) Sodium (E)-6-Furfurylidenepenem-3-carboxylate]", "values": [{"measurement": "MIC", "setting": "Staphylococci Russell", "result": 125, "unit": "µg/mL"}, {"measurement": "MIC", "setting": "Staphylococci Oxford", "result": 62, "unit": "µg/mL"}]}, {"smiles": "O=C(O)C1=CSC2/C(=C\\c3ccc(Br)o3)C(=O)N12", "note": "(racemic) [Example 11b, (5RS) Sodium (Z)-6-(5-Bromofurfurylidene)penem-3-carboxylate]", "values": [{"measurement": "MIC", "setting": "Staphylococci Russell", "result": 50, "unit": "µg/mL"}, {"measurement": "MIC", "setting": "Staphylococci Oxford", "result": 50, "unit": "µg/mL"}]}, {"smiles": "O=C(O)C1=CSC2/C(=C/c3ccoc3)C(=O)N12", "note": "(racemic) [Example 12b, (5RS) Sodium (E)-6-(3-Furylmethylene)penem-3-carboxylate]", "values": [{"measurement": "MIC", "setting": "Staphylococci Russell", "result": 50, "unit": "µg/mL"}, {"measurement": "MIC", "setting": "Staphylococci Oxford", "result": 100, "unit": "µg/mL"}]}, {"smiles": "CC1(C)S[C@@H]2[C@H](NC(=O)[C@H](N)c3ccc(O)cc3)C(=O)N2[C@H]1C(=O)O", "note": "[Amoxycillin]", "values": [{"measurement": "MIC (µg/ml) of antibiotic", "setting": "S Aureus Russell", "result": 500, "unit": "µg/mL"}, {"measurement": "MIC (µg/ml) of antibiotic", "setting": "Kleb aerogenes", "result": 500, "unit": "µg/mL"}, {"measurement": "MIC (µg/ml) of antibiotic", "setting": "E. coli JT39 (RTEM)", "result": 2000, "unit": "µg/mL"}]}, {"smiles": "CO/N=C(\\C(=O)N[C@@H]1C(=O)N2C(C(=O)O)=C(COC(C)=O)CS[C@H]12)c1csc(N)n1", "note": "[Cefotaxime]", "values": [{"measurement": "MIC Cephalosporin", "setting": "Ps.aeruginosa Charlier; Cefotaxime alone", "result": ">80", "unit": "µg/mL"}, {"measurement": "MIC Cephalosporin", "setting": "Ps.aeruginosa Badia IR; Cefotaxime alone", "result": ">80", "unit": "µg/mL"}, {"measurement": "MIC Cephalosporin", "setting": "S.marcescens V697; Cefotaxime alone", "result": ">80", "unit": "µg/mL"}, {"measurement": "MIC Cephalosporin", "setting": "S.marcescens HCN 3956; Cefotaxime alone", "result": 80, "unit": "µg/mL"}, {"measurement": "MIC Cephalosporin", "setting": "C.freundii T1739; Cefotaxime alone", "result": 40, "unit": "µg/mL"}, {"measurement": "MIC Cephalosporin", "setting": "C.freundii 423; Cefotaxime alone", "result": 40, "unit": "µg/mL"}, {"measurement": "MIC Cephalosporin", "setting": "C.freundii T562; Cefotaxime alone", "result": 40, "unit": "µg/mL"}, {"measurement": "MIC Cephalosporin", "setting": "M.morganii 978; Cefotaxime alone", "result": ">80", "unit": "µg/mL"}, {"measurement": "MIC Cephalosporin", "setting": "E.cloacae 4508; Cefotaxime alone", "result": ">80", "unit": "µg/mL"}, {"measurement": "MIC Cephalosporin", "setting": "E.cloacae V692/80; Cefotaxime alone", "result": ">80", "unit": "µg/mL"}, {"measurement": "MIC Cephalosporin", "setting": "E.cloacae P383; Cefotaxime alone", "result": ">80", "unit": "µg/mL"}, {"measurement": "MIC Cephalosporin", "setting": "E.cloacae 159/167; Cefotaxime alone", "result": ">80", "unit": "µg/mL"}, {"measurement": "MIC Cephalosporin", "setting": "E.cloacae Dokt 5; Cefotaxime alone", "result": ">80", "unit": "µg/mL"}, {"measurement": "MIC Cephalosporin", "setting": "E.aerogenes 53; Cefotaxime alone", "result": ">80", "unit": "µg/mL"}, {"measurement": "MIC Cephalosporin", "setting": "E.aerogenes 55; Cefotaxime alone", "result": 80, "unit": "µg/mL"}, {"measurement": "MIC Cephalosporin", "setting": "E.aerogenes P99; Cefotaxime alone", "result": ">80", "unit": "µg/mL"}]}, {"smiles": "CC(C)(O/N=C(\\C(=O)N[C@@H]1C(=O)N2C(C(=O)[O-])=C(C[n+]3ccccc3)CS[C@H]12)c1csc(N)n1)C(=O)O", "note": "[Ceftazidine]", "values": [{"measurement": "MIC Cephalosporin", "setting": "Ps.aeruginosa Charlier; Ceftazidine alone", "result": 80, "unit": "µg/mL"}, {"measurement": "MIC Cephalosporin", "setting": "Ps.aeruginosa Badia IR; Ceftazidine alone", "result": ">80", "unit": "µg/mL"}, {"measurement": "MIC Cephalosporin", "setting": "S.marcescens V697; Ceftazidine alone", "result": 80, "unit": "µg/mL"}, {"measurement": "MIC Cephalosporin", "setting": "S.marcescens HCN 3956; Ceftazidine alone", "result": 5, "unit": "µg/mL"}, {"measurement": "MIC Cephalosporin", "setting": "C.freundii T1739; Ceftazidine alone", "result": 80, "unit": "µg/mL"}, {"measurement": "MIC Cephalosporin", "setting": "C.freundii 423; Ceftazidine alone", "result": 80, "unit": "µg/mL"}, {"measurement": "MIC Cephalosporin", "setting": "C.freundii T562; Ceftazidine alone", "result": 80, "unit": "µg/mL"}, {"measurement": "MIC Cephalosporin", "setting": "M.morganii 978; Ceftazidine alone", "result": 2.5, "unit": "µg/mL"}, {"measurement": "MIC Cephalosporin", "setting": "E.cloacae 4508; Ceftazidine alone", "result": ">80", "unit": "µg/mL"}, {"measurement": "MIC Cephalosporin", "setting": "E.cloacae V692/80; Ceftazidine alone", "result": ">80", "unit": "µg/mL"}, {"measurement": "MIC Cephalosporin", "setting": "E.cloacae P383; Ceftazidine alone", "result": ">80", "unit": "µg/mL"}, {"measurement": "MIC Cephalosporin", "setting": "E.cloacae 159/167; Ceftazidine alone", "result": ">80", "unit": "µg/mL"}, {"measurement": "MIC Cephalosporin", "setting": "E.cloacae Dokt 5; Ceftazidine alone", "result": ">80", "unit": "µg/mL"}, {"measurement": "MIC Cephalosporin", "setting": "E.aerogenes 53; Ceftazidine alone", "result": ">80", "unit": "µg/mL"}, {"measurement": "MIC Cephalosporin", "setting": "E.aerogenes 55; Ceftazidine alone", "result": 80, "unit": "µg/mL"}, {"measurement": "MIC Cephalosporin", "setting": "E.aerogenes P99; Ceftazidine alone", "result": 80, "unit": "µg/mL"}]}, {"smiles": "O=C(Cc1cccs1)N[C@@H]1C(=O)N2C(C(=O)[O-])=C(C[n+]3ccccc3)CS[C@H]12", "note": "[Cephaloridine]", "values": [{"measurement": "MIC (µg/ml) of antibiotic", "setting": "E.coli JT410", "result": "62 to 125", "unit": "µg/mL"}]}]}
